ChEMBL document CHEMBL5038629, “Light-Triggered Fluorescence Self-Reporting Nitric Oxide Release from Coumarin Analogues for Accelerating Wound Healing and Synergistic Antimicrobial Applications” (J Med Chem, 2022)
Active and inactive are the calls of the source.

How the values were obtained:
[1] = NO releasing activity upon exposure to UV light irradiation in presence of Ala by fluorescence based analysis; assay type: functional
[2] = NO releasing activity in IPA solvent upon exposure to UV light irradiation by fluorescence based analysis; assay type: functional
[3] = NO releasing activity in CAN solvent upon exposure to UV light irradiation by fluorescence based analysis; assay type: functional
[4] = test system: RAW264.7; test: Cytotoxicity against mouse RAW264.7 cells assessed as reduction in cell viability upto 60 uM measured after 8 hrs by CCK8 assay; assay type: functional, cell-based; settings: dose microM <=60, time 8.0 hrs
[5] = test system: Staphylococcus aureus; test: Inhibition of biofilm formation in methicillin-resistant Staphylococcus aureus assessed as biofilm dispersal effect at 10 uM incubated for 5 hrs followed by exposure to UV light irradiation for 1 min by crystal violet staining based analysis; assay type: functional; parameters: scale not given: the % may be the effect or the level left; settings: time 301 min, 5.017 h
[6] = NO releasing activity assessed as NO release efficiency at 60 uM by Griess assay relative to NaNO2; assay type: functional
[7] = NO releasing activity upon exposure to UV light irradiation in presence of Phe by fluorescence based analysis; assay type: functional
[8] = test system: HUVEC; test: Induction of angiogenesis in human HUVEC cells assessed as increase in cell proliferation upto 60 uM upon exposure to UV light irradiation and measured after 8 hrs by CCK8 assay; assay type: functional, cell-based; settings: dose microM <=60, time 8.0 hrs
[9] = NO releasing activity upon exposure to UV light irradiation at pH 4 to 8 by fluorescence based analysis; assay type: functional
[10] = test system: Staphylococcus aureus; test: Antibacterial activity against methicillin-resisitant Staphylococcus aureus assessed as wrinkled bacterial membrane formation at 10 uM incubated for 5 hrs followed by exposure to UV light irradiation for 1 min in presence of levofloxacin by scanning electron microscopy; assay type: functional, organism-based; settings: time 301.0 min
[11] = NO releasing activity in MeOH solvent upon exposure to UV light irradiation by fluorescence based analysis; assay type: functional
[12] = NO releasing activity assessed as NO release efficiency at 80 uM by Griess assay relative to NaNO2; assay type: functional
[13] = test system: HepG2; test: NO releasing activity in human HepG2 cells assessed as increase in red fluorescence intensity at 10 uM upon exposure to UV light irradiation for 10s by DAQ probe based fluorescence analysis; assay type: ADME, cell-based; settings: hepg2, 10 s
[14] = NO releasing activity upon exposure to UV light irradiation in presence of Asp by fluorescence based analysis; assay type: functional
[15] = Stability of the compound in human L02 cells at 10 uM by DAQ probe based fluorescence analysis; assay type: ADME, cell-based; settings: l02, 10 µM
[16] = NO releasing activity upon exposure to UV light irradiation in presence of Ser by fluorescence based analysis; assay type: functional
[17] = NO releasing activity upon exposure to UV light irradiation in presence of His by fluorescence based analysis; assay type: functional
[18] = test system: Mus musculus; test: Acceleration of wound healing in methicillin-resistant Staphylococcus aureus infected CD1 mouse assessed as boosted collagen deposition and granulation tissue in skin using UV light-irradiated compound at 10 uM, sc on days 0, 3, 7 and 14 in presence of levofloxacin and measured on day 14 by H and E staining based analysis; assay type: functional, organism-based; settings: time 15.0 day
[19] = test system: L02; test: NO releasing activity in human L02 cells assessed as increase in red fluorescence intensity at 10 uM upon exposure to UV light irradiation for 10s by DAQ probe based fluorescence analysis; assay type: ADME, cell-based; settings: l02, 10 s
[20] = test system: Staphylococcus aureus; test: Inhibition of biofilm formation in methicillin-resistant Staphylococcus aureus assessed as increase in planktonic bacteria at 10 uM upon exposure to UV light irradiation and measured after 48 hrs in presence of levofloxacin by NB plate based imaging analysis; assay type: functional; parameters: scale not given: the % may be the effect or the level left
[21] = test system: Mus musculus; test: Acceleration of wound healing in methicillin-resistant Staphylococcus aureus infected CD1 mouse assessed as boosted collagen deposition and granulation tissue in skin using UV light-irradiated compound at 10 uM, sc on days 0, 3, 7 and 14 and measured on day 14 by H and E staining based analysis; assay type: functional, organism-based; settings: time 15.0 day
[22] = NO releasing activity at 20 uM upon exposure to UV light irradiation for 5 mins by EPR spectroscopy; assay type: functional
[23] = test system: Staphylococcus aureus; test: Inhibition of biofilm formation in methicillin-resistant Staphylococcus aureus assessed as decrease in biofilm mass at 10 uM upon exposure to UV light irradiation and measured after 48 hrs in presence of levofloxacin by dilution plate coating method; assay type: functional; settings: light or radiation study
[24] = NO releasing activity at 100 uM upon exposure to UV light irradiation by DAF-2 probe based fluorescence analysis; assay type: functional
[25] = NO releasing activity upon exposure to UV light irradiation at powers from 3 to 15 mW/cm2 by fluorescence based analysis; assay type: functional
[26] = NO releasing activity upon exposure to UV light irradiation in presence of Hcy by fluorescence based analysis; assay type: functional
[27] = test system: Staphylococcus aureus; test: Inhibition of biofilm formation in methicillin-resistant Staphylococcus aureus assessed as biofilm dispersal effect at 10 uM incubated for 5 hrs followed by exposure to UV light irradiation for 1 min in presence of levofloxacin by crystal violet staining based analysis; assay type: functional; parameters: scale not given: the % may be the effect or the level left; settings: time 301 min, 5.017 h
[28] = NO releasing activity upon exposure to UV light irradiation in presence of HClO by fluorescence based analysis; assay type: functional
[29] = Toxicity in methicillin-resistant Staphylococcus aureus-infected CD1 mouse assessed as change in body weight using UV light-irradiated compound at 10 uM, sc on days 0, 3, 7 and 14; assay type: organism-based; settings: in vivo, 360 h, time 15 day
[30] = NO releasing activity assessed as NO release efficiency at 100 uM by Griess assay relative to NaNO2; assay type: functional
[31] = NO releasing activity in EA solvent upon exposure to UV light irradiation by fluorescence based analysis; assay type: functional
[32] = test system: L02; test: Induction of angiogenesis in human L02 cells assessed as increase in cell proliferation upto 60 uM upon exposure to UV light irradiation and measured after 8 hrs by CCK8 assay; assay type: functional, cell-based; settings: dose microM <=60, time 8.0 hrs
[33] = NO releasing activity assessed as increase in fluorescence intensity upon exposure to UV light at 1 to 10 uM measured after 30 mins by fluorescence based analysis; assay type: functional; settings: dose 1-10 µM
[34] = NO releasing activity in Diox-solvent upon exposure to UV light irradiation by fluorescence based analysis; assay type: functional
[35] = Photolysis of compound in DMSO/PBS assessed as 4-methyl-7-(2-nitrobenzylamino)-2H-chromen-2-one and AMC formation along with NO release upon exposure to UV light and measured after 30 mins by HPLC analysis; assay type: functional
[36] = NO releasing activity upon exposure to UV light irradiation in presence of […] by fluorescence based analysis; assay type: functional
[37] = NO releasing activity upon exposure to UV light irradiation in presence of NaSO4 by fluorescence based analysis; assay type: functional
[38] = test system: Staphylococcus aureus; test: Inhibition of biofilm formation in methicillin-resistant Staphylococcus aureus assessed as increase in planktonic bacteria at 10 uM upon exposure to UV light irradiation and measured after 48 hrs by NB plate based imaging analysis; assay type: functional, organism-based
[39] = test system: Mus musculus; test: Induction of angiogenesis in methicillin-resistant Staphylococcus aureus infected CD1 mouse assessed as increase in CD31 surface expression in skin by measuring increase in green fluorescence intensity using UV light-irradiated compound at 10 uM, sc on days 0, 3, 7 and 14 in presence of levofloxacin and measured on day 14 by immunofluorescence staining based analysis; assay type: functional, organism-based; settings: time 15.0 day
[40] = NO releasing activity in PBS buffer of 20% DMSO at 20 uM upon exposure to UV light irradiation by amperometric method; assay type: functional
[41] = test system: HUVEC; test: Induction of angiogenesis in human HUVEC cells assessed as increase in cell migration rate upon UV light irradiation and measured after 12 to 24 hrs by cell scratch test; assay type: functional, cell-based; settings: time 12-24 hrs
[42] = NO releasing activity in Tol solvent upon exposure to UV light irradiation by fluorescence based analysis; assay type: functional
[43] = NO releasing activity upon exposure to UV light irradiation in presence of Arg by fluorescence based analysis; assay type: functional
[44] = NO releasing activity assessed as increase in fluorescence intensity upon exposure to UV light at 0 to 18 uM by fluorescence based analysis; assay type: functional; settings: dose 0-18 µM
[45] = NO releasing activity upon exposure to UV light irradiation at 50 to 70 degC measured after 4 to 8 hrs by fluorescence based analysis; assay type: functional; settings: time 4-8 hrs
[46] = test system: Staphylococcus aureus; test: Inhibition of biofilm formation in methicillin-resistant Staphylococcus aureus assessed as decrease in biofilm mass at 10 uM upon exposure to UV light irradiation and measured after 48 hrs by dilution plate coating method; assay type: functional; settings: light or radiation study
[47] = test system: HUVEC; test: Cytotoxicity against human HUVEC cells assessed as reduction in cell viability upto 60 uM measured after 8 hrs by CCK8 assay; assay type: functional, cell-based; settings: dose microM <=60, time 8.0 hrs
[48] = NO releasing activity in DMSO solvent upon exposure to UV light irradiation by fluorescence based analysis; assay type: functional
[49] = test system: HUVEC; test: Induction of angiogenesis in human HUVEC cells assessed as increase in tube formation upon exposure to UV light irradiation measured after 24 hrs; assay type: functional, cell-based
[50] = NO releasing activity in TCM solvent upon exposure to UV light irradiation by fluorescence based analysis; assay type: functional
[51] = test system: L02; test: Cytotoxicity against human L02 cells assessed as reduction in cell viability upto 60 uM measured after 8 hrs by CCK8 assay; assay type: functional, cell-based; settings: dose microM <=60, time 8.0 hrs
[52] = NO releasing activity upon exposure to UV light irradiation in presence of GSH by fluorescence based analysis; assay type: functional
[53] = Photolysis of compound in DMSO/PBS assessed as 4-methyl-7-(2-nitrobenzylamino)-2H-chromen-2-one and AMC formation along with NO release upon exposure to UV light by mass spectrometry; assay type: functional
[54] = NO releasing activity assessed as NO release efficiency at 40 uM by Griess assay relative to NaNO2; assay type: functional
[55] = NO releasing activity assessed as increase in fluorescence intensity at 420 nm upon exposure to UV light measured after 0 to 5 mins by fluorescence based analysis; assay type: functional; settings: time 0-5 min
[56] = NO releasing activity in DMK solvent upon exposure to UV light irradiation by fluorescence based analysis; assay type: functional
[57] = NO releasing activity upon exposure to UV light irradiation in presence of Cys by fluorescence based analysis; assay type: functional
[58] = NO releasing activity upon exposure to UV light irradiation in presence of Na2S by fluorescence based analysis; assay type: functional
[59] = NO releasing activity upon exposure to UV light irradiation in presence of Trp by fluorescence based analysis; assay type: functional
[60] = test system: RAW264.7; test: Induction of angiogenesis in mouse RAW264.7 cells assessed as increase in cell proliferation upto 60 uM upon exposure to UV light irradiation and measured after 8 hrs by CCK8 assay; assay type: functional, cell-based; settings: dose microM <=60, time 8.0 hrs
[61] = NO releasing activity assessed as NO release efficiency at 20 uM by Griess assay relative to NaNO2; assay type: functional
[62] = Stability of the compound in human HepG2 cells at 10 uM by DAQ probe based fluorescence analysis; assay type: ADME, cell-based; settings: hepg2, 10 µM
[63] = NO releasing activity assessed as NO release efficiency at 10 uM by Griess assay relative to NaNO2; assay type: functional
[64] = test system: Mus musculus; test: Acceleration of wound healing in methicillin-resistant Staphylococcus aureus infected CD1 mouse assessed as increase in wound healing rate using UV light-irradiated compound at 10 uM, sc on days 0, 3, 7 and 14 in presence of 10 uM levofloxacin; assay type: functional, organism-based; settings: time 15.0 day

Cc1cc(=O)oc2cc(N(Cc3ccccc3[N+](=O)[O-])N=O)ccc12
93%: Drug metabolism [30]
28%: inhibition at 10 µM [46]
96.9%: Drug metabolism [6]
active: Activity [4] | Activity [8] | Activity [10] | Activity [18] | Activity [21] | Activity [32] | Activity [38] | Activity [39] | Activity [41] | Activity [47] | Activity [49] | Activity [51] | Activity [60] | Activity [64]
74%: Activity [27]
99.2%: Drug metabolism [61]
54%: inhibition at 10 µM [23]
Stable: Stability [15] | Stability [62]
99%: Drug metabolism [63]
98.6%: Drug metabolism [54]
Non-Toxic: Activity [29]
160%: Activity [20]
97.6%: Drug metabolism [12]
Metabolite detected: Drug metabolism [1] | Drug metabolism [2] | Drug metabolism [3] | Drug metabolism [7] | Drug metabolism [9] | Drug metabolism [11] | Drug metabolism [14] | Drug metabolism [16] | Drug metabolism [17] | Drug metabolism [22] | Drug metabolism [24] | Drug metabolism [25] | Drug metabolism [26] | Drug metabolism [28] | Drug metabolism [31] | Drug metabolism [33] | Drug metabolism [34] | Drug metabolism [35] | Drug metabolism [36] | Drug metabolism [37] | Drug metabolism [40] | Drug metabolism [42] | Drug metabolism [43] | Drug metabolism [44] | Drug metabolism [45] | Drug metabolism [48] | Drug metabolism [50] | Drug metabolism [52] | Drug metabolism [53] | Drug metabolism [55] | Drug metabolism [56] | Drug metabolism [57] | Drug metabolism [58] | Drug metabolism [59]
Metabolite_Detected: Drug metabolism [13] | Drug metabolism [19]
15%: Activity [5]

C[C@H]1COc2c(N3CCN(C)CC3)c(F)cc3c(=O)c(C(=O)O)cn1c23.C[C@H]1COc2c(N3CCN(C)CC3)c(F)cc3c(=O)c(C(=O)O)cn1c23.O [LEVOFLOXACIN]
19%: inhibition at 10 µM [46]
15%: Activity [5]
